In ChEMBL document CHEMBL1130499, “Synthesis of halogenated/nitrated flavone derivatives and evaluation of their affinity for the central benzodiazepine receptor” (Bioorg Med Chem Lett, 1997) one finds Ki data, which are given here for 23 compounds.

Each structure is given as a SMILES string. pKi: −log10 of the molar value. A value given as a limit tells only on which side of the number the result lay.

One may read the pKi as the Ki on a negative log10 scale, so that one unit is a factor of ten. The low end stands for a high Ki, the high end for a low Ki.

For this assay, the target named is GABA-A receptor; anion channel. The experiment in a line: Displacement of [3H]flunitrazepine binding from GABA-A central benzodiazepine receptor of rat cerebral cortical membrane. A general note: Displacement assays read how much labelled ligand stays bound in the presence of the test substance.
On to `O=c1cc(-c2ccccc2[N+](=O)[O-])oc2ccc([N+](=O)[O-])cc12`, for which the pKi is less than 5.00. With `O=c1cc(-c2ccccc2)oc2ccc([N+](=O)[O-])cc12` the figure was 6.56; with `O=c1cc(-c2cccc([N+](=O)[O-])c2)oc2ccccc12`, 6.55; with `O=c1cc(-c2cccc([N+](=O)[O-])c2)oc2ccc([N+](=O)[O-])cc12`, 7.59. In the case of `O=c1cc(-c2ccc(Br)cc2)oc2ccccc12` it was less than 4.70; in that of `O=c1cc(-c2ccccc2[N+](=O)[O-])oc2ccccc12`, less than 4.70. With `O=c1cc(-c2cccc(Br)c2)oc2ccc(Br)cc12` the figure was 7.72; with `O=c1cc(-c2ccc([N+](=O)[O-])cc2)oc2ccc(Br)cc12`, 6.70. `O=c1cc(-c2cccc(Br)c2)oc2ccccc12` showed a pKi of 6.38.

Compound `O=c1cc(-c2cccc([N+](=O)[O-])c2)oc2ccc(F)cc12` showed a pKi of 6.74. Regarding `O=c1cc(-c2cccc(Cl)c2)oc2ccccc12`, the negative-log Ki (pKi) is 6.21.

Regarding `O=c1cc(-c2ccccc2[N+](=O)[O-])oc2ccc(Br)cc12`, the pKi is 6.68.

`O=c1cc(-c2cccc([N+](=O)[O-])c2)oc2ccc(Cl)cc12` had a pKi of 8.10. In the case of `O=c1c(Br)c(-c2cccc([N+](=O)[O-])c2)oc2ccccc12`, the pKi was less than 4.70.

As for `O=c1c(Br)c(-c2ccccc2)oc2ccc(Br)cc12`, the pKi was less than 4.12. With `O=c1cc(-c2ccccc2)oc2ccc(F)cc12` the figure was 5.35; with `O=c1c(Br)c(-c2ccccc2)oc2ccccc12`, less than 4.12; with `O=c1cc(-c2cc([N+](=O)[O-])cc([N+](=O)[O-])c2)oc2ccccc12`, less than 4.70.

In turn, `O=c1cc(-c2ccc([N+](=O)[O-])cc2)oc2ccc([N+](=O)[O-])cc12` showed a pKi of less than 5.00. Take `O=c1cc(-c2cccc(Br)c2)oc2ccc([N+](=O)[O-])cc12`: the pKi was 7.60. Compound `O=c1cc(-c2ccccc2)oc2ccc(Br)cc12` [6-BROMOFLAVONE] had a pKi of 7.12. With `O=c1cc(-c2ccccc2)oc2ccc(Cl)cc12` [6-CHLOROFLAVONE] the figure was 6.79; with `O=c1cc(-c2ccccc2)oc2ccccc12` [FLAVONE], 6.00.
